Experimental data from PubChem BioAssay (NCI).
Where “and” joins values, the source holds several entries; their conditions need not be identical. Equal values may be shown once.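 Briefly, cells in 96-well plates were exposed to five compound concentrations for 48 h, and endpoints were estimated by linear interpolation. Abbreviation: GI50, concentration required for 50% inhibition of growth. At the TGI there is no net growth.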

What was measured:
Experiment in all cases: inhibition of tumour cell growth, NCI panel, 48 h
SK-MEL-2 melanoma = test system: SK-MEL-2 melanoma
UACC-257 melanoma = test system: UACC-257 melanoma
M14 melanoma = test system: M14 melanoma
TK-10 renal = test system: TK-10 renal
KM12 colon = test system: KM12 colon
SF-268 CNS = test system: SF-268 CNS
A549 NSCLC = test system: A549 NSCLC
HCC-2998 colon = test system: HCC-2998 colon
NCI-H226 lung = test system: NCI-H226 lung
MALME-3M melanoma = test system: MALME-3M melanoma

Structure (SMILES)	TGI (SK-MEL-2 melanoma)	TGI (UACC-257 melanoma)	TGI (M14 melanoma)	TGI (TK-10 renal)	TGI (KM12 colon)	TGI (SF-268 CNS)	TGI (A549 NSCLC)	TGI (HCC-2998 colon)	TGI (NCI-H226 lung)	TGI (MALME-3M melanoma)	GI50 (SK-MEL-2 melanoma)	GI50 (UACC-257 melanoma)	GI50 (KM12 colon)	GI50 (SF-268 CNS)	GI50 (A549 NSCLC)	GI50 (HCC-2998 colon)	GI50 (NCI-H226 lung) [µM]	GI50 (MALME-3M melanoma)	GI50 (TK-10 renal)	GI50 (M14 melanoma)
Cc1ccc(NC(c2ccccc2)c2ccc3cccnc3c2O)cc1 (stereo unspecified)	21 µM	25.8 µM	19 µM	14.3 µM	19.1 µM	13.6 µM	41.3 µM	> 100 µM	8.4 µM	13.8 µM	–	–	–	–	–	–	–	–	–	–
Cc1[nH]c(=O)[nH]c(=O)c1N(CCF)CCCl	447 µM and 832 µM and 808 µM	465 µM and 1070 µM and 855 µM	767 µM	1070 µM	824 µM and 1330 µM and 719 µM	651 µM and 1120 µM and 1100 µM	990 µM and 1210 µM and 1850 µM	606 µM and 668 µM and 751 µM	584 µM and 1960 µM and 1390 µM	410 µM and 757 µM and 721 µM	239 µM	228 µM	280 µM and 508 µM	192 µM and 329 µM	335 µM and 455 µM	220 µM	249	219 µM and 393 µM	–	–
COc1ccc(C(=O)/C=C/c2ccc(O)c(O)c2F)c(OC)c1	13.4 µM and 13.6 µM	18.4 µM and 22.3 µM	16.7 µM and 28 µM	28.5 µM and 23.4 µM	27.8 µM and 23.9 µM	75 µM and 59.1 µM	75 µM and > 100 µM	12.2 µM and 12.3 µM	37.1 µM and 46.3 µM	22.6 µM and 25.2 µM	–	10.5 µM	–	8.75 µM	8.62 µM	3.41 µM	–	12 µM	7.64 µM	–
CCN(CC)CCCN(c1cc(OC)cc2nccnc12)S(=O)(=O)c1ccc(C)cc1	> 100 µM	> 100 µM	> 100 µM	> 100 µM	> 100 µM	> 100 µM	> 100 µM	> 100 µM	> 100 µM	> 100 µM	–	–	–	–	–	–	–	–	–	–
CC(C)C[C@@H](NC(=O)[C@@H](Cc1ccccc1)NC(=O)c1cnccn1)B1O[C@H]2[C@H](O)[C@@H](C(=O)NCCCC[C@@H]3NC(=O)[C@@H](Cc4ccccc4)NC(=O)[C@H](CC(=O)O)NC(=O)CNC(=O)[C@H](CCCN=C(N)N)NC3=O)O[C@@H](CN)[C@H]2O1	0.0604 µM and 0.0123 µM	0.0812 µM and 0.0183 µM	0.116 µM and 0.0141 µM	0.0249 µM and 0.00851 µM	0.0437 µM and 0.0177 µM	0.0387 µM and 0.0574 µM	0.658 µM	0.0323 µM and 0.0165 µM	0.0077 µM	0.127 µM and 0.591 µM	0.00702 µM and 0.005 µM	0.0135 µM and 0.005 µM	0.0131 µM and 0.0057 µM	0.00877 µM and 0.00535 µM	0.0288 µM and 0.0148 µM	0.016 µM and 0.00799 µM	0.00278	0.00457 µM and 0.005 µM	0.00308 µM and 0.005 µM	0.00392 µM and 0.005 µM
CN(C)CCCCN1CCc2c(n(C)c3ccccc23)C1=O	50.2 µM and 35.9 µM	28.7 µM and 31.4 µM	36.8 µM and 34 µM	> 100 µM	> 92.7 µM	> 76.3 µM and 57.6 µM	> 93.5 µM	64.3 µM and 30.3 µM	> 80.5 µM	43.6 µM and 36.3 µM	–	–	–	–	–	39.7 µM and 15.9 µM	–	–	> 100 µM and 38.8 µM	–
COc1cccc(N2C(=O)c3c(c4[nH]c5ccccc5c4c4ccc(C(C)(C)C)cc34)C2=O)c1	> 100 µM	> 100 µM	> 100 µM	> 100 µM	> 100 µM	> 100 µM	> 100 µM	> 100 µM	> 100 µM	> 100 µM	–	–	–	–	–	–	–	–	–	–
CC(C)(C)NNC(=O)/C(=C/c1ccc(Oc2ccc(Cl)c(Cl)c2)cc1)NC(=O)c1ccccc1	> 100 µM	> 100 µM	> 100 µM	> 100 µM	> 100 µM	> 100 µM	> 100 µM	> 100 µM	> 100 µM	> 100 µM	–	–	–	–	–	–	–	–	–	–
O=C1c2ccccc2-c2c1c1ccccc1c(=O)n2CCCNCCCn1c2c(c3ccccc3c1=O)C(=O)c1ccccc1-2	> 50 µM	25.7 µM	30.4 µM	18 µM	9.65 µM	> 30.6 µM	> 50 µM	17.7 µM	13.9 µM	26.2 µM	22.7 µM	10.2 µM	2.9 µM	7.13 µM	2.01 µM	6.82 µM	4.42	12.6 µM	5.34 µM	9.15 µM
O=C(CCN1CCN(c2cccc(Cl)c2)CC1)N1CCc2c([nH]c3ccccc23)C1c1cccnc1 (stereo unspecified)	18.2 µM	21.3 µM	9.22 µM and 19 µM	10.9 µM	15.9 µM	–	19 µM	4.04 µM and 8.05 µM	49.9 µM	36.8 µM	5.24 µM	6.43 µM	5.04 µM	–	–	2.91 µM	–	14.9 µM	2.53 µM	6.06 µM
COc1ccc(CN2C(=O)/C(=C\c3cc(OC)c(OC)c(OC)c3)c3cc(OC)ccc32)cc1	4.01 µM	4.94 µM	4.32 µM	18.6 µM	4.05 µM	7.05 µM	8.62 µM	3.85 µM	22.8 µM	34.1 µM	1.92 µM	1.94 µM	2.04 µM	2.68 µM	2.74 µM	2.05 µM	3.93	3.82 µM	3.92 µM	1.98 µM
N#CC1=C(N)Oc2cc3c(cc2C1c1cccs1)OCO3 (stereo unspecified)	0.783 µM	> 100 µM	> 100 µM	> 67.8 µM	> 59.7 µM	> 85.6 µM	> 70.9 µM	11.6 µM	> 100 µM	> 100 µM	0.252 µM	0.502 µM	0.325 µM	0.654 µM	0.583 µM	0.775 µM	0.653	0.58 µM	1.86 µM	0.387 µM
CCC1=C(C)/C(=C/c2[nH]c(C)c(C(=O)CCCCC(=O)OC)c2C)N=C1c1ccc[nH]1	46.2 µM	44.2 µM	58.8 µM	71.1 µM	> 77.4 µM	47.7 µM	> 53.4 µM	54.1 µM	51.3 µM	45.1 µM	19.4 µM	16.1 µM	16.6 µM	7.15 µM	20.4 µM	22.3 µM	17.6	13.7 µM	24.5 µM	18.7 µM
CCn1c(=O)c(-c2ccn[nH]2)cc2c(C)nc(N)nc21	9.58 µM	6.24 µM	30.6 µM	4.62 µM	> 100 µM	> 100 µM	7.41 µM	> 100 µM	> 100 µM	1.33 µM	2.25 µM	1.38 µM	3.3 µM	1.53 µM	1.99 µM	5.03 µM	2.41	0.167 µM	0.871 µM	1.23 µM
O=S(=O)([O-])[O-].[OH3+].[OH3+].[OH3+].[Ru+2].c1ccccc1	> 100 µM	> 100 µM	> 100 µM	> 100 µM	> 100 µM	> 100 µM	> 100 µM	> 100 µM	> 100 µM	> 100 µM	> 100 µM	> 100 µM	> 100 µM	> 100 µM	> 100 µM	> 100 µM	> 100	> 100 µM	> 100 µM	> 100 µM
Cc1cc2c(cc1C)NC(=O)C(NC(=O)/C=C/c1ccccc1)C=N2 (stereo unspecified)	84.4 µM	82.9 µM	> 100 µM	> 100 µM	55.4 µM	> 100 µM	> 100 µM	> 100 µM	> 100 µM	> 100 µM	–	–	–	–	–	–	–	–	–	–
O=C1C=CC(=O)c2c1ccc1c3ccccc3n(-c3ccccn3)c21	> 100 µM	37.3 µM	87.9 µM	30.5 µM	> 100 µM	> 100 µM	> 100 µM	> 100 µM	82.7 µM	32.7 µM	–	–	–	–	–	–	–	–	–	–
CN1CCN(Cc2ccc(-c3cc4ncnc(Nc5ccc(OCc6cccc(F)c6)c(Cl)c5)c4s3)o2)CC1	10.2 µM	8.37 µM	8.81 µM	6.64 µM	8.19 µM	8.7 µM	6.92 µM	7.99 µM	10.4 µM	9.69 µM	5.33 µM	4.26 µM	4.44 µM	4.07 µM	3.2 µM	4.24 µM	4.39	4.56 µM	3.02 µM	4.63 µM
CC(C)C[C@H](NC(=O)[C@H](Cc1ccccc1)n1ccc(N2CCCCC2)cc1=O)B(O)O	4.56 µM	–	3.88 µM	15.6 µM	4.38 µM	3.85 µM	> 100 µM	3.09 µM	0.423 µM	7.95 µM	0.46 µM	–	1.33 µM	0.699 µM	2.39 µM	1.14 µM	0.188	0.682 µM	0.375 µM	0.356 µM
CC(C(=O)N1C(=O)N(C(=O)C(C)C(O)c2ccccc2)C(c2ccccc2)C1c1ccccc1)C(O)c1ccccc1 (stereo unspecified)	50.2 µM	–	33.4 µM	> 100 µM	5.69 µM	> 100 µM	> 100 µM	> 100 µM	34.3 µM	32.3 µM	–	–	–	–	–	–	–	–	–	–
O=C(O)c1ccc(NC(=O)C2C(=O)C(=O)N(c3ccc(C(=O)O)cc3)C2=O)cc1 (stereo unspecified)	> 100 µM	> 100 µM	–	> 100 µM	> 100 µM	> 100 µM	> 100 µM	> 100 µM	> 100 µM	> 100 µM	–	–	–	–	–	–	–	–	–	–
Cn1ccnc1C(=O)/C=C/c1ccc(CC(=O)Nc2ccc(Cl)cc2)cc1	> 25 µM	> 25 µM	–	> 25 µM	> 25 µM	> 25 µM	> 25 µM	> 25 µM	> 25 µM	> 25 µM	> 25 µM	> 25 µM	1.51 µM	1.24 µM	11.5 µM	3.42 µM	7.43	14.2 µM	12.3 µM	–
